Reference: patent publication US20260146035A1, “FUSED BICYCLIC COMPOUNDS AND THEIR USE AS MER AND AXL INHIBITORS” (DONG-A ST CO., LTD., priority 2022, published 2026)

How the values were obtained:
[1] = target: T1, human AXL (473-end) (Homo sapiens, UniProt P30530); experiment: HTRF kinase activity biochemical assay, AXL; conditions: 10 μM ATP, 30 minutes pre-incubation
T1 construct: human AXL (473-end); purchased SignalChem, Canada
T1 sequence (P30530 473-894 limits assumed): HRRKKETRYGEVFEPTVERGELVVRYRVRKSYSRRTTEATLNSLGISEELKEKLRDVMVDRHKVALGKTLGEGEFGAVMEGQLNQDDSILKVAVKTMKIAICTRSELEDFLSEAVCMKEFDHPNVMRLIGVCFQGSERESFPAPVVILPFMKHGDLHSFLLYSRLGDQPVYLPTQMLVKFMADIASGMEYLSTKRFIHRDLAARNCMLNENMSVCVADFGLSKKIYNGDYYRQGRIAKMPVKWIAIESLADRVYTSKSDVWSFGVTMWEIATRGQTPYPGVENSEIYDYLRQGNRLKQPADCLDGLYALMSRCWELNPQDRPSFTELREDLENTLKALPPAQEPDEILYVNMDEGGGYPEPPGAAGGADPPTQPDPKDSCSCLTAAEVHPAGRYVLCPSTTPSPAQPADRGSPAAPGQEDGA

[2] = target: T2, human MER (528-end) (Homo sapiens, UniProt Q12866); experiment: HTRF kinase activity biochemical assay, MER; conditions: 10 μM ATP, 30 minutes pre-incubation; read-out: HTRF MERTK IC50
T2 construct: human MER (528-end); purchased Camnabio, Japan
T2 sequence (Q12866 528-999 limits assumed): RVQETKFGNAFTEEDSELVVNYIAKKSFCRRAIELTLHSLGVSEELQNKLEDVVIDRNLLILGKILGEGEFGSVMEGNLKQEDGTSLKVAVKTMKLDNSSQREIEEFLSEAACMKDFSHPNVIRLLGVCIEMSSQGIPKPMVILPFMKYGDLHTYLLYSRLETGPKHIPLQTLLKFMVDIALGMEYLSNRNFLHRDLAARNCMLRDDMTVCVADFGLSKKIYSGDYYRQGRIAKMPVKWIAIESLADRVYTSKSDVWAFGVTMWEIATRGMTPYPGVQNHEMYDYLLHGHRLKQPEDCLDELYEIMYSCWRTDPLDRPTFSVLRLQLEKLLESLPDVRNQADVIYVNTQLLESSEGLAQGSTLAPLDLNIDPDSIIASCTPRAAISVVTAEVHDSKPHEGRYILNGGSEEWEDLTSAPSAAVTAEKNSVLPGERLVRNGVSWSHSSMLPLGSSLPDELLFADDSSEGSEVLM

[3] = target: T3, human TYRO3 (455-end) (Homo sapiens, UniProt Q06418); experiment: HTRF kinase activity biochemical assay, TYRO3; conditions: 10 μM ATP, 30 minutes pre-incubation; read-out: HTRF TYRO IC50
T3 construct: TYRO3 (455-end); purchased SignalChem, Canada
T3 sequence (Q06418 455-890 limits assumed): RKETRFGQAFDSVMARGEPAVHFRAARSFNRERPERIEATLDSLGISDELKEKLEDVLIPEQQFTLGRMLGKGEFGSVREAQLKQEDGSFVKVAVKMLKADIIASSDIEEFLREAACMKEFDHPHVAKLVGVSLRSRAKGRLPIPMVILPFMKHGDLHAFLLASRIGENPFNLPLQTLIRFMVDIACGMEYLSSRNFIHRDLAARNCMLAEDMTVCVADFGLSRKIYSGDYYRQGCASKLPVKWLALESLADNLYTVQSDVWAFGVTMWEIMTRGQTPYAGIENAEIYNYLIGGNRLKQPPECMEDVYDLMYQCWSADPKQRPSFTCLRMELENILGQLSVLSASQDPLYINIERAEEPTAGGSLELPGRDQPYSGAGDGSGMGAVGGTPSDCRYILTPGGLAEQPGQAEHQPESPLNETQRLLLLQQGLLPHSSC

Compound	IC50 [1]	IC50 [2]	IC50 [3]
Cn1cc(-c2cnc(N)c(C(=O)N[C@H]3CCC[C@@H]3OCc3ccc(-c4ccc5c(c4)NC(=O)C5N4CCN(CCO)CC4)cc3)c2)cn1 (stereo partly drawn) [Example 69, 2-amino-N-{(1S,2S)-2-[(4-{3-[4-(2-hydroxyethyl)piperazin-1-yl]-2-oxo-2,3-dihydro-1H-indol-6-yl}phenyl)methoxy]cyclopentyl}-5-(1-methyl-1H-pyrazol-4-yl)pyridine-3-carboxamide]	100 to 1000 nM	100 to 1000 nM	> 1000 nM
Cn1cc(-c2cnc(N)c(C(=O)N[C@H]3CCC[C@@H]3OCc3ccc(-c4cnc5c(c4)C(C)(C)CN5C4CCN(CCO)CC4)cc3)c2)cn1 [Example 77, 2-amino-N-{(1S,2S)-2-[(4-{1-[1-(2-hydroxyethyl)piperidin-4-yl]-3,3-dimethyl-2,3-dihydro-1H-pyrrolo[2,3-b]pyridin-5-yl}phenyl)methoxy]cyclopentyl}-5-(1-methyl-1H-pyrazol-4-yl)pyridine-3-carboxamide]	< 10 nM	< 10 nM	10 to 100 nM
COc1c(-c2cnn(C)c2)cnc(N)c1C(=O)N[C@H]1CCC[C@@H]1OCc1ccc(-c2ccc3c(c2)CC[C@@H]3N2CCN(CCO)CC2)cc1 [Example 155, 2-amino-N-{(1S,2S)-2-[(4-{(1S)-1-[4-(2-hydroxyethyl)piperazin-1-yl]-2,3-dihydro-1H-inden-5-yl}phenyl)methoxy]cyclopentyl}-4-methoxy-5-(1-methyl-1H-pyrazol-4-yl)pyridine-3-carboxamide]	< 10 nM	< 10 nM	100 to 1000 nM
Cn1cc(-c2cnc(N)c(C(=O)N[C@H]3CCC[C@@H]3OCc3ccc(-c4ccc5c(c4)CC[C@@H]5N4CCN(C(CO)CO)CC4)cc3)c2)cn1 [Example 128, 2-amino-N-{(1S,2S)-2-[(4-{(1S)-1-[4-(1,3-dihydroxypropan-2-yl)piperazin-1-yl]-2,3-dihydro-1H-inden-5-yl}phenyl)methoxy]cyclopentyl}-5-(1-methyl-1H-pyrazol-4-yl)pyridine-3-carboxamide]	< 10 nM	< 10 nM	100 to 1000 nM
Cn1cc(-c2cnc(N)c(C(=O)N[C@H]3CCC[C@@H]3OCc3ccc(-c4ccc5c(c4)ncn5C4CCN(CCO)CC4)cc3)c2)cn1 [Example 156, 2-amino-N-{(1S,2S)-2-[(4-{1-[1-(2-hydroxyethyl)piperidin-4-yl]-1H-benzimidazol-5-yl}phenyl)methoxy]cyclopentyl}-5-(1-methyl-1H-pyrazol-4-yl)pyridine-3-carboxamide]	> 1000 nM	100 to 1000 nM	> 1000 nM
CC1(C)CN(C2CCN(CCO)CC2)c2ccc(-c3ccc(CO[C@H]4COC[C@@H]4NC(=O)c4nc(-c5ccc(F)nc5)cnc4N)cc3)cc21 [Example 52, 3-amino-6-(6-fluoropyridin-3-yl)-N-{(3S,4R)-4-[(4-{1-[1-(2-hydroxyethyl)piperidin-4-yl]-3,3-dimethyl-2,3-dihydro-1H-indol-5-yl}phenyl)methoxy]oxolan-3-yl}pyrazine-2-carboxamide]	10 to 100 nM	< 10 nM	100 to 1000 nM
Nc1ncc(-c2ccc(F)nc2)cc1C(=O)N[C@H]1CCC[C@@H]1OCc1ccc(-c2ccc3c(c2)CC(F)(F)C3N2CCN(CC(O)CO)CC2)cc1 (stereo partly drawn) [Example 62, 6-amino-N-{(1S,2S)-2-[(4-{1-[4-(2,3-dihydroxypropyl)piperazin-1-yl]-2,2-difluoro-2,3-dihydro-1H-inden-5-yl}phenyl)methoxy]cyclopentyl}-6′-fluoro[3,3′-bipyridine]-5-carboxamide]	< 10 nM	< 10 nM	> 1000 nM
Cn1cc(-c2cnc(N)c(C(=O)N[C@H]3CCC[C@@H]3OCc3ccc(-c4ccc5c(c4)C(C)(C)CCC5N4CCN(CCO)CC4)cc3)c2)cn1 (stereo partly drawn) [Example 148, 2-amino-N-{(1S,2S)-2-[(4-{5-[4-(2-hydroxyethyl)piperazin-1-yl]-8,8-dimethyl-5,6,7,8-tetrahydronaphthalen-2-yl}phenyl)methoxy]cyclopentyl}-5-(1-methyl-1H-pyrazol-4-yl)pyridine-3-carboxamide]	< 10 nM	< 10 nM	10 to 100 nM
C=C(C)c1cnc(N)c(C(=O)N[C@H]2CCC[C@@H]2OCc2ccc(-c3ccc4c(c3)C(C)(C)CN4C3CCN(CCO)CC3)cc2)c1 [Example 51, 2-amino-N-{(1S,2S)-2-[(4-{1-[1-(2-hydroxyethyl)piperidin-4-yl]-3,3-dimethyl-2,3-dihydro-1H-indol-5-yl}phenyl)methoxy]cyclopentyl}-5-(prop-1-en-2-yl)pyridine-3-carboxamide]	< 10 nM	< 10 nM	< 10 nM
Nc1ncc(-c2cccnc2F)cc1C(=O)N[C@H]1CCC[C@@H]1OCc1ccc(-c2ccc3c(c2)CC[C@@H]3N2CCN(C(CO)CO)CC2)cc1 [Example 129, 6-amino-N-{(1S,2S)-2-[(4-{(1S)-1-[4-(1,3-dihydroxypropan-2-yl)piperazin-1-yl]-2,3-dihydro-1H-inden-5-yl}phenyl)methoxy]cyclopentyl}-2′-fluoro[3,3′-bipyridine]-5-carboxamide]	< 10 nM	< 10 nM	> 1000 nM
CN1CCC(c2c[nH]c3cc(-c4ccc(CO[C@H]5CCC[C@@H]5NC(=O)c5cc(-c6cnn(C)c6)cnc5N)cc4)ccc23)CC1 [Example 15, 2-amino-N-[(1S,2S)-2-({4-[3-(1-methylpiperidin-4-yl)-1H-indol-6-yl]phenyl}methoxy)cyclopentyl]-5-(1-methyl-1H-pyrazol-4-yl)pyridine-3-carboxamide]	100 to 1000 nM	10 to 100 nM	> 1000 nM
CN1CCN(C2CC(C)(C)c3cc(-c4ccc(CO[C@H]5CCC[C@@H]5NC(=O)c5cc(-c6ccc(F)nc6)cnc5N)cc4)ccc32)CC1 (stereo partly drawn) [Example 94, 6-amino-N-[(1S,2S)-2-({4-[3,3-dimethyl-1-(4-methylpiperazin-1-yl)-2,3-dihydro-1H-inden-5-yl]phenyl}methoxy)cyclopentyl]-6′-fluoro[3,3′-bipyridine]-5-carboxamide]	< 10 nM	< 10 nM	10 to 100 nM
Cn1cc(-c2cnc(N)c(C(=O)N[C@H]3CCC[C@@H]3OCc3ccc(-c4ccc5c(ccn5C5CCNCC5)c4)cc3)c2)cn1 [Example 5, 2-amino-5-(1-methyl-1H-pyrazol-4-yl)-N-[(1S,2S)-2-({4-[1-(piperidin-4-yl)-1H-indol-5-yl]phenyl}methoxy)cyclopentyl]pyridine-3-carboxamide]	< 10 nM	< 10 nM	100 to 1000 nM
Cn1cc(-c2cnc(N)c(C(=O)N[C@H]3CCC[C@@H]3OCc3ccc(-c4ccc5c(c4)CCCN5C4CCN(CCO)CC4)cc3)c2)cn1 [Example 112, 2-amino-N-{(1S,2S)-2-[(4-{1-[1-(2-hydroxyethyl)piperidin-4-yl]-1,2,3,4-tetrahydroquinolin-6-yl}phenyl)methoxy]cyclopentyl}-5-(1-methyl-1H-pyrazol-4-yl)pyridine-3-carboxamide]	< 10 nM	< 10 nM	10 to 100 nM
Nc1ncc(-c2ccc(F)nc2)cc1C(=O)N[C@H]1CCC[C@@H]1OCc1ccc(-c2ccc3c(c2)C2(CC2)CN(C2CCN(CCO)CC2)C3)cc1 [Example 75, 6-amino-6′-fluoro-N-{(1S,2S)-2-[(4-{2′-[1-(2-hydroxyethyl)piperidin-4-yl]-2′,3′-dihydro-1′H-spiro[cyclopropane-1,4′-isoquinolin]-6′-yl}phenyl)methoxy]cyclopentyl}[3,3′-bipyridine]-5-carboxamide]	> 1000 nM	> 1000 nM	> 1000 nM
